In patent US10004701B2, “Methods and compositions for treating infection” (UNIVERSITY OF ROCHESTER, priority 2012, dated 2018):
Structures can show the parent of a compound that is named as a salt. Where two headings read alike, the source gives them in different places.

Columns and labels:
Assay in all cases: AK assay 384-well format, Prestwick library screening
E. cloacae = format: cell-based, Enterobacter cloacae; details: 50 μM final drug concentration; for fold induction at 50 µM: Enterobacter cloacae, 3 h
K. pneumoniae = format: cell-based, Klebsiella pneumoniae; details: 50 μM final drug concentration; for fold induction at 50 µM: Klebsiella pneumoniae, 3 h
[1] = tested on: A. baumannii strain 98-37-09; format: cell-based, Acinetobacter baumannii; details: 50 μM final drug concentration; for fold induction at 50 µM: Acinetobacter baumannii, 983709, 3 h
[2] = tested on: S. aureus strain USA300-0114; format: cell-based, Staphylococcus aureus; details: 50 μM final drug concentration; for fold induction at 50 µM: Staphylococcus aureus, USA300, 3 h
P. aeruginosa = format: cell-based, Pseudomonas aeruginosa; details: 50 μM final drug concentration; for fold induction at 50 µM: Pseudomonas aeruginosa, 3 h
E. faecium = format: cell-based, Enterococcus faecium; details: 50 μM final drug concentration; for fold induction at 50 µM: Enterococcus faecium, 3 h
E. coli = format: cell-based, Escherichia coli; details: 50 μM final drug concentration; for fold induction at 50 µM: Escherichia coli, 3 h
[3] = 384-well format, cutoff for positive-scoring molecules 3-fold increase, read-out: AK-based Prestwick Library Screening Results, E. cloacae (increase in extracellular AK activity)
[4] = 384-well format, cutoff for positive-scoring molecules 3-fold increase, read-out: AK-based Prestwick Library Screening Results, K. pneumoniae (increase in extracellular AK activity)
[5] = 384-well format, cutoff for positive-scoring molecules 3-fold increase, read-out: AK-based Prestwick Library Screening Results, A. baumannii (increase in extracellular AK activity)
[6] = 384-well format, cutoff for positive-scoring molecules 3-fold increase, read-out: AK-based Prestwick Library Screening Results, S. aureus (increase in extracellular AK activity)
[7] = 384-well format, cutoff for positive-scoring molecules 3-fold increase, read-out: AK-based Prestwick Library Screening Results, P. aeruginosa (increase in extracellular AK activity)
[8] = 384-well format, cutoff for positive-scoring molecules 3-fold increase, read-out: AK-based Prestwick Library Screening Results, E. faecium (increase in extracellular AK activity)
[9] = 384-well format, cutoff for positive-scoring molecules 3-fold increase, read-out: AK-based Prestwick Library Screening Results, E. coli (increase in extracellular AK activity)
[10] = planktonic E. cloacae, 384-well, cutoff for positive-scoring molecules 3-fold increase, read-out: AK-based Prestwick Library Screening Results: E. cloacae (increase in extracellular AK activity)
[11] = planktonic K. pneumoniae, 384-well, cutoff for positive-scoring molecules 3-fold increase, read-out: AK-based Prestwick Library Screening Results: K. pneumoniae (increase in extracellular AK activity)
[12] = planktonic A. baumannii, 384-well, cutoff for positive-scoring molecules 3-fold increase, read-out: AK-based Prestwick Library Screening Results: A. baumannii (increase in extracellular AK activity)
[13] = planktonic S. aureus, 384-well, cutoff for positive-scoring molecules 3-fold increase, read-out: AK-based Prestwick Library Screening Results: S. aureus (increase in extracellular AK activity)
[14] = planktonic P. aeruginosa, 384-well, cutoff for positive-scoring molecules 3-fold increase, read-out: AK-based Prestwick Library Screening Results: P. aeruginosa (increase in extracellular AK activity)
[15] = planktonic E. faecium, 384-well, cutoff for positive-scoring molecules 3-fold increase, read-out: AK-based Prestwick Library Screening Results: E. faecium (increase in extracellular AK activity)
[16] = planktonic E. coli, 384-well, cutoff for positive-scoring molecules 3-fold increase, read-out: AK-based Prestwick Library Screening Results: E. coli (increase in extracellular AK activity)
[17] = planktonic E. cloacae, cutoff for positive-scoring molecules 3-fold increase, read-out: AK-based Prestwick Library Screening Results, E. cloacae (increase in extracellular AK activity)
[18] = planktonic K. pneumoniae, cutoff for positive-scoring molecules 3-fold increase, read-out: AK-based Prestwick Library Screening Results, K. pneumoniae (increase in extracellular AK activity)
[19] = planktonic A. baumannii, cutoff for positive-scoring molecules 3-fold increase, read-out: AK-based Prestwick Library Screening Results, A. baumannii (increase in extracellular AK activity)
[20] = planktonic S. aureus, cutoff for positive-scoring molecules 3-fold increase, read-out: AK-based Prestwick Library Screening Results, S. aureus (increase in extracellular AK activity)
[21] = planktonic P. aeruginosa, cutoff for positive-scoring molecules 3-fold increase, read-out: AK-based Prestwick Library Screening Results, P. aeruginosa (increase in extracellular AK activity)
[22] = planktonic E. faecium, cutoff for positive-scoring molecules 3-fold increase, read-out: AK-based Prestwick Library Screening Results, E. faecium (increase in extracellular AK activity)
[23] = planktonic E. coli, cutoff for positive-scoring molecules 3-fold increase, read-out: AK-based Prestwick Library Screening Results, E. coli (increase in extracellular AK activity)
[24] = cutoff for positive-scoring molecules 3-fold increase

## CC(=O)S[C@@H]1CC2=CC(=O)CC[C@]2(C)[C@H]2CC[C@@]3(C)[C@@H](CC[C@@]34CCC(=O)O4)[C@H]12 [Spironolactone]
E. cloacae; [3]
  fold induction at 50 µM: 1.3
K. pneumoniae; [4]
  fold induction at 50 µM: 1
[1]; [5]
  fold induction at 50 µM: 1.1
[2]; [6]
  fold induction at 50 µM: 1.2
P. aeruginosa; [7]
  fold induction at 50 µM: 1
E. faecium; [8]
  fold induction at 50 µM: 1
E. coli; [9]
  fold induction at 50 µM: 1.4

## CCCNC(=O)NS(=O)(=O)c1ccc(Cl)cc1 [Chlorpropamide]
E. cloacae; [10]
  fold induction at 50 µM: 0.3
K. pneumoniae; [11]
  fold induction at 50 µM: 0.4
[1]; [12]
  fold induction at 50 µM: 0.3
[2]; [13]
  fold induction at 50 µM: 0.4
P. aeruginosa; [14]
  fold induction at 50 µM: 0.3
E. faecium; [15]
  fold induction at 50 µM: 0.9
E. coli; [16]
  fold induction at 50 µM: 0.4

## CCCN(CCC)C(=O)C(CCC(=O)O)NC(=O)c1ccccc1 (centres unmarked) [Proglumide]
E. cloacae; [10]
  fold induction at 50 µM: 1.5
K. pneumoniae; [11]
  fold induction at 50 µM: 1.2
[1]; [12]
  fold induction at 50 µM: 1.3
[2]; [13]
  fold induction at 50 µM: 1.1
P. aeruginosa; [14]
  fold induction at 50 µM: 1.1
E. faecium; [15]
  fold induction at 50 µM: 1
E. coli; [16]
  fold induction at 50 µM: 1.3

## CCCCNC(=O)NS(=O)(=O)c1ccc(C)cc1 [Tolbutamide]
E. cloacae; [3]
  fold induction at 50 µM: 1
K. pneumoniae; [4]
  fold induction at 50 µM: 0.8
[1]; [5]
  fold induction at 50 µM: 0.9
[2]; [6]
  fold induction at 50 µM: 0.7
P. aeruginosa; [7]
  fold induction at 50 µM: 0.9
E. faecium; [8]
  fold induction at 50 µM: 1
E. coli; [9]
  fold induction at 50 µM: 0.8

## COC(=O)C1=C(C)NC(C)=C(C(=O)OC)C1c1ccccc1[N+](=O)[O-] [Nifedipine]
E. cloacae; [10]
  fold induction at 50 µM: 1.4
K. pneumoniae; [11]
  fold induction at 50 µM: 0.9
[1]; [12]
  fold induction at 50 µM: 1.5
[2]; [13]
  fold induction at 50 µM: 0.5
P. aeruginosa; [14]
  fold induction at 50 µM: 1
E. faecium; [15]
  fold induction at 50 µM: 0.9
E. coli; [16]
  fold induction at 50 µM: 1.4

## NC[C@H]1O[C@H](O[C@H]2[C@H](O[C@@H]3O[C@H](CO)[C@@H](O)[C@H]3O)[C@@H](O)[C@H](N)C[C@@H]2N)[C@H](N)[C@@H](O)[C@@H]1O [Ribostamycin sulfate salt]
E. cloacae; planktonic, cutoff for positive-scoring molecules 3-fold increase, read-out: AK-based Prestwick Library Screening Results, E. cloacae (fold increase in extracellular AK activity)
  fold induction at 50 µM: 1.2
K. pneumoniae; planktonic, cutoff for positive-scoring molecules 3-fold increase, read-out: AK-based Prestwick Library Screening Results, K. pneumoniae (fold increase in extracellular AK activity)
  fold induction at 50 µM: 0.7
[1]; planktonic, cutoff for positive-scoring molecules 3-fold increase, read-out: AK-based Prestwick Library Screening Results, A. baumannii (fold increase in extracellular AK activity)
  fold induction at 50 µM: 0.8
[2]; planktonic, cutoff for positive-scoring molecules 3-fold increase, read-out: AK-based Prestwick Library Screening Results, S. aureus (fold increase in extracellular AK activity)
  fold induction at 50 µM: 0.8
P. aeruginosa; planktonic, cutoff for positive-scoring molecules 3-fold increase, read-out: AK-based Prestwick Library Screening Results, P. aeruginosa (fold increase in extracellular AK activity)
  fold induction at 50 µM: 0.8
E. faecium; planktonic, cutoff for positive-scoring molecules 3-fold increase, read-out: AK-based Prestwick Library Screening Results, E. faecium (fold increase in extracellular AK activity)
  fold induction at 50 µM: 0.9
E. coli; planktonic, cutoff for positive-scoring molecules 3-fold increase, read-out: AK-based Prestwick Library Screening Results, E. coli (fold increase in extracellular AK activity)
  fold induction at 50 µM: 0.9

## Nc1ccc(S(=O)(=O)NC(=O)c2ccccc2)cc1 [Sulfabenzamide]
E. cloacae; cutoff for positive-scoring molecules 3-fold increase, read-out: AK-based Prestwick Library Screening Results, E. cloacae (fold increase in extracellular AK activity)
  fold induction at 50 µM: 1.6
K. pneumoniae; cutoff for positive-scoring molecules 3-fold increase, read-out: AK-based Prestwick Library Screening Results, K. pneumoniae (fold increase in extracellular AK activity)
  fold induction at 50 µM: 1.1
[1]; cutoff for positive-scoring molecules 3-fold increase, read-out: AK-based Prestwick Library Screening Results, A. baumannii (fold increase in extracellular AK activity)
  fold induction at 50 µM: 2.8
[2]; cutoff for positive-scoring molecules 3-fold increase, read-out: AK-based Prestwick Library Screening Results, S. aureus (fold increase in extracellular AK activity)
  fold induction at 50 µM: 1.2
P. aeruginosa; cutoff for positive-scoring molecules 3-fold increase, read-out: AK-based Prestwick Library Screening Results, P. aeruginosa (fold increase in extracellular AK activity)
  fold induction at 50 µM: 1.1
E. faecium; cutoff for positive-scoring molecules 3-fold increase, read-out: AK-based Prestwick Library Screening Results, E. faecium (fold increase in extracellular AK activity)
  fold induction at 50 µM: 1.1
E. coli; cutoff for positive-scoring molecules 3-fold increase, read-out: AK-based Prestwick Library Screening Results, E. coli (fold increase in extracellular AK activity)
  fold induction at 50 µM: 1.1

## N=C(N)NC(=O)Cc1c(Cl)cccc1Cl [Guanfacine hydrochloride]
E. cloacae; [17]
  fold induction at 50 µM: 0.9
K. pneumoniae; [18]
  fold induction at 50 µM: 0.5
[1]; [19]
  fold induction at 50 µM: 0.7
[2]; [20]
  fold induction at 50 µM: 0.6
P. aeruginosa; [21]
  fold induction at 50 µM: 0.7
E. faecium; [22]
  fold induction at 50 µM: 1.1
E. coli; [23]
  fold induction at 50 µM: 0.8

## CCN(CC)C(=O)c1ccc(O)c(OC)c1 [Ethamivan]
E. cloacae; [17]
  fold induction at 50 µM: 0.9
K. pneumoniae; [18]
  fold induction at 50 µM: 0.6
[1]; [19]
  fold induction at 50 µM: 0.9
[2]; [20]
  fold induction at 50 µM: 0.6
P. aeruginosa; [21]
  fold induction at 50 µM: 0.6
E. faecium; [22]
  fold induction at 50 µM: 1
E. coli; [23]
  fold induction at 50 µM: 0.6

## CCCCC1C(=O)N(c2ccccc2)N(c2ccc(O)cc2)C1=O (centres unmarked) [Oxyphenbutazone]
E. cloacae; [24]
  AK-based Prestwick Library Screening Results, E. cloacae (fold increase in extracellular AK activity): 0.5
K. pneumoniae; [24]
  AK-based Prestwick Library Screening Results, K. pneumoniae (fold increase in extracellular AK activity): 0.5
[1]; [24]
  AK-based Prestwick Library Screening Results, A. baumannii (fold increase in extracellular AK activity): 0.5
[2]; [24]
  AK-based Prestwick Library Screening Results, S. aureus (fold increase in extracellular AK activity): 0.4
P. aeruginosa; [24]
  AK-based Prestwick Library Screening Results, P. aeruginosa (fold increase in extracellular AK activity): 0.5
E. faecium; [24]
  AK-based Prestwick Library Screening Results, E. faecium (fold increase in extracellular AK activity): 0.9
E. coli; [24]
  AK-based Prestwick Library Screening Results, E. coli (fold increase in extracellular AK activity): 0.5

## CC(C)NC[C@@H](O)COc1cccc2ccccc12.Cl [(R)-Propranolol hydrochloride]
E. cloacae; planktonic E. cloacae, positive cutoff 3-fold increase
  AK-based Prestwick library screening result, E. cloacae (fold increase in extracellular AK activity): 17.3
K. pneumoniae; planktonic K. pneumoniae, positive cutoff 3-fold increase
  AK-based Prestwick library screening result, K. pneumoniae (fold increase in extracellular AK activity): 0.7
[1]; planktonic A. baumannii, positive cutoff 3-fold increase
  AK-based Prestwick library screening result, A. baumannii (fold increase in extracellular AK activity): 0.9
[2]; planktonic S. aureus, positive cutoff 3-fold increase
  AK-based Prestwick library screening result, S. aureus (fold increase in extracellular AK activity): 0.8
P. aeruginosa; planktonic P. aeruginosa, positive cutoff 3-fold increase
  AK-based Prestwick library screening result, P. aeruginosa (fold increase in extracellular AK activity): 0.8
E. faecium; planktonic E. faecium, positive cutoff 3-fold increase
  AK-based Prestwick library screening result, E. faecium (fold increase in extracellular AK activity): 0.9
E. coli; planktonic E. coli, positive cutoff 3-fold increase
  AK-based Prestwick library screening result, E. coli (fold increase in extracellular AK activity): 0.8
